ChEMBL document CHEMBL1201862, “PubChem BioAssay data set” (2004)
Calls of active or inactive are those of the source.

Key:
[1] = molecular target: Glucose-6-phosphate 1-dehydrogenase (Homo sapiens, UniProt P11413); experiment: human G6PD enzyme inhibitors, dose response, selectivity assay for P. falciparum G6PD inhibitor project, biochemical, fluorescence (AID 504792); assay type: functional
[2] = molecular target: Beta-galactosidase (Escherichia coli, UniProt Q8VNN2); experiment: beta-galactosidase enzyme inhibitors and activators, dose response, artefact control for CCR6 antagonist project, biochemical, E. coli enzyme, set 3 (AID 504712); assay type: functional
Sequence of Beta-galactosidase (Q8VNN2 whole entry, the tested form may be a part): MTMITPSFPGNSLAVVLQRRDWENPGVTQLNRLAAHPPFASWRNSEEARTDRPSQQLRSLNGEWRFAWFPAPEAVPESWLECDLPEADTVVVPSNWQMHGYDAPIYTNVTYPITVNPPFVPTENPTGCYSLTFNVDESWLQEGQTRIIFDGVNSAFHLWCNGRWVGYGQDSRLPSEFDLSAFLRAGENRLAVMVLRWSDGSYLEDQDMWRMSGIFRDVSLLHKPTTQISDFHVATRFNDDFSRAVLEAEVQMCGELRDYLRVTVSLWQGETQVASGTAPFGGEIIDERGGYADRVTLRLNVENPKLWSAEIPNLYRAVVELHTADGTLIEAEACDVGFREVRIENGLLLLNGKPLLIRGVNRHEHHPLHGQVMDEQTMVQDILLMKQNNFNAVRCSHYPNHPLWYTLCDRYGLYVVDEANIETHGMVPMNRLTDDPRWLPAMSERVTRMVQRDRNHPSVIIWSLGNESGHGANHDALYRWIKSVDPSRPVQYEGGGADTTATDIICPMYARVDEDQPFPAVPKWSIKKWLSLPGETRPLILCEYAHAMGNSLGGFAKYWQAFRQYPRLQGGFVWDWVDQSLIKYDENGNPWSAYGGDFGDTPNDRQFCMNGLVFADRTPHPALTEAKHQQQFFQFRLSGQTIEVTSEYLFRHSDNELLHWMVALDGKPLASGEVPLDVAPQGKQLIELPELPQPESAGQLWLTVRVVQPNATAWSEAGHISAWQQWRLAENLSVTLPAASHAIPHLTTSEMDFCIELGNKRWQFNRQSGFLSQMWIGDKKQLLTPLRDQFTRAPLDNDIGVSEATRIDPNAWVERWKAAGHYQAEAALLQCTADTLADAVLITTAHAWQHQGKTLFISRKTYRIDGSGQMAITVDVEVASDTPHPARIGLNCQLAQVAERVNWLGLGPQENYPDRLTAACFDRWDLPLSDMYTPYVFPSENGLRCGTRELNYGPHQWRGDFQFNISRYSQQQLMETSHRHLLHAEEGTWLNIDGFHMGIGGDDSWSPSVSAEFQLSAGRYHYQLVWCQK

[3] = tested on: CHO; experiment: cytotoxicity in TLR9-MyD88 CHO cells, dose response, cytotoxicity control for TLR9-MyD88 binding inhibitor project, cell-based, luminescence (AID 588339); assay type: functional, hamster; conditions: Cricetulus griseus;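 also: CHO cells stably coexpressing TLR9 and MyD88 fusions from primary screen; compound exposure lasted 48 hours before viability readout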
[4] = molecular target: Heat shock protein HSP 90-alpha (Homo sapiens, UniProt P07900); assay type: functional, organism-based
[5] = tested on: Vero; experiment: Vero cell cytotoxicity, cytotoxicity control for flavivirus capping enzyme inhibitors (AID 588742); assay type: functional; conditions: Chlorocebus sabaeus
[6] = molecular target: T1, Beta Lactamase (Pseudomonas aeruginosa, UniProt Q932Y6); experiment: beta-lactamase reporter inhibitor potency, dose response, artefact control for TLR9-MyD88 binding inhibitor project, BLA reporter cells, FRET fluorescence (AID 588341); assay type: cell-based;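 also: cell based assay in CHO-K1 cells stably expressing beta-lactamase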
T1 sequence (Q932Y6 whole entry): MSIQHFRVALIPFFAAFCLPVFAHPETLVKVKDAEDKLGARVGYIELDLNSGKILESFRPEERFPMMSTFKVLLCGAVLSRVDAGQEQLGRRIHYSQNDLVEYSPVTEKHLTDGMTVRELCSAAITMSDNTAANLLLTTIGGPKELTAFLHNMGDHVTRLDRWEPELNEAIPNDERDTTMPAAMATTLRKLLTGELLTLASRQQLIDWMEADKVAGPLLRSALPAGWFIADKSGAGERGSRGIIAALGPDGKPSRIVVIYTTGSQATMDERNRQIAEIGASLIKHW

[7] = molecular target: Genome polyprotein (dengue virus type 2, UniProt P29990); experiment: Dengue-2 NS5 methyltransferase inhibitors, primary screen, biochemical, confirmation dose response (AID 588689); assay type: functional
Sequence of Genome polyprotein (P29990 2492-3391 limits assumed): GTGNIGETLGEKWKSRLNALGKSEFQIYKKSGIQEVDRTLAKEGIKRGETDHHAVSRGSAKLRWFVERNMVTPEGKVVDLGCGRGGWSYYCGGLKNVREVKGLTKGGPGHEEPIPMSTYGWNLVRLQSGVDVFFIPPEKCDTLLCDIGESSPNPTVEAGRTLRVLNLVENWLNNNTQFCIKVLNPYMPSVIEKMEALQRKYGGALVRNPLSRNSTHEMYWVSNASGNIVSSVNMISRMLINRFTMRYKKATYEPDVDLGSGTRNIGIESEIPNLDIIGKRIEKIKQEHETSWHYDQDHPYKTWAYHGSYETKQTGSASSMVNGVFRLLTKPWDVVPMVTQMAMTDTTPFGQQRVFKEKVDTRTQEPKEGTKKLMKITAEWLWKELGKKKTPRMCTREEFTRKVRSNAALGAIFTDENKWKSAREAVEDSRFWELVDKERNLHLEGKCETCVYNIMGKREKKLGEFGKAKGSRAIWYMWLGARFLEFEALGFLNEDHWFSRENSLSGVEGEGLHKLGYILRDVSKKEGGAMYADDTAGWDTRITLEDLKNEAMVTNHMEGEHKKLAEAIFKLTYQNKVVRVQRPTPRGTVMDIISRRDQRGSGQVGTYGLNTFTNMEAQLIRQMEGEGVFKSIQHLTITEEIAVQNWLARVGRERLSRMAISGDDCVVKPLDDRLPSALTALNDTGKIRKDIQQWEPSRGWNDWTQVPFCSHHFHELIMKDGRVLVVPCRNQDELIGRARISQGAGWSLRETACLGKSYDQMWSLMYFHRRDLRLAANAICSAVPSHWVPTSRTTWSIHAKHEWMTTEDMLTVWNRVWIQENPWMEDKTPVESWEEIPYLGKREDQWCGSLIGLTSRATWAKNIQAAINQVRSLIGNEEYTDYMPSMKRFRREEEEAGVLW

[8] = Fluorescence-based cell-based high throughput dose response assay for inhibitors of the interaction of nucleotide-binding oligomerization domain containing 2 (NOD2) and the receptor-interacting serine-threonine kinase 2 (RIPK2).; assay type: functional; conditions: Homo sapiens
[9] = molecular target: T1, Beta Lactamase; experiment: beta-lactamase reporter inhibitor potency, dose response, artefact control for NOD2-RIPK2 interaction inhibitor project, BLA reporter cells, FRET fluorescence (AID 651552); assay type: functional, cell-based
[10] = molecular target: Paired box protein Pax-8 (Homo sapiens, UniProt Q06710); experiment: inhibitors of PAX8-driven TPO luciferase reporter, dose response, RMG-I cells, cherry-pick (AID 687027); assay type: functional, cell-based;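 also: luciferase reporter driven by Pax8 target thyroperoxidase promoter measured by SteadyGlo luminescence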
Sequence of Paired box protein Pax-8 (Q06710 whole entry): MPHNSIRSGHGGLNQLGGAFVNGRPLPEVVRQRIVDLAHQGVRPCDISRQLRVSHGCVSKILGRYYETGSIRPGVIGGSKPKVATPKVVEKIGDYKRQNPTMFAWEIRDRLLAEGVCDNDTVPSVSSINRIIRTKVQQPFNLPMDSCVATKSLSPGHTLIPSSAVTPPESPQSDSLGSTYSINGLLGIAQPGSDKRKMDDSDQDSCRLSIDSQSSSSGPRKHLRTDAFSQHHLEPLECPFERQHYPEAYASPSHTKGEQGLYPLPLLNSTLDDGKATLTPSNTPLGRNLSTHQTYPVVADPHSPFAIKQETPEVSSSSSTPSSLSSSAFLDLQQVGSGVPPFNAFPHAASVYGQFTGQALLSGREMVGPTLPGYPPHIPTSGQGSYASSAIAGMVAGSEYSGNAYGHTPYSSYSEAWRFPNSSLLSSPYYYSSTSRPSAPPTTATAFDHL

[11] = non-specific cell cytotoxicity, dose response, cytotoxicity control for PAX8 inhibitor project, plate reader, dry powder samples (AID 743021); assay type: functional, cell-based
[12] = molecular target: T2, Protein Tat (Human immunodeficiency virus type 1 group M subtype B (isolate HXB2)(HIV-1), UniProt P04608); assay type: functional;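 also: tat binding to TAR RNA read out by fluorescence polarization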
T2 sequence (P04608 whole entry): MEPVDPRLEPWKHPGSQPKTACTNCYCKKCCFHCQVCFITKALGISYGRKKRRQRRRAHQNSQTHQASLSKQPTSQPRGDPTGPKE

[13] = THP-1 cell cytotoxicity, dose response, cytotoxicity control for Vif-APOBEC3G degradation inhibitor project, THP-1 cells (AID 1117359); assay type: functional; conditions: Human immunodeficiency virus 1, THP-1
[14] = HeLa cell cytotoxicity, dose response, cytotoxicity control, 24 h, plate reader, dry powder (AID 686928); assay type: functional, cell-based
[15] = tested on: Streptococcus sp. 'group A'; experiment: growth inhibition of control SK(-) GAS strain, dose response, counter-screen for streptokinase expression inhibitor project, luminescence, kanamycin, BacTiterGlo, confirmation (AID 1900); assay type: functional, organism-based
[16] = molecular target: T3, Streptokinase A (Streptococcus pyogenes serotype M1, UniProt P10520); experiment: S. pyogenes streptokinase expression inhibitors, potency, dose response, plasminogen activation absorbance, OD405 (AID 1914); assay type: functional, Streptococcus pyogenes M1 GAS;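 also: secreted streptokinase activity via plasminogen activation per viability signal from cell pellet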
T3 sequence (P10520 whole entry): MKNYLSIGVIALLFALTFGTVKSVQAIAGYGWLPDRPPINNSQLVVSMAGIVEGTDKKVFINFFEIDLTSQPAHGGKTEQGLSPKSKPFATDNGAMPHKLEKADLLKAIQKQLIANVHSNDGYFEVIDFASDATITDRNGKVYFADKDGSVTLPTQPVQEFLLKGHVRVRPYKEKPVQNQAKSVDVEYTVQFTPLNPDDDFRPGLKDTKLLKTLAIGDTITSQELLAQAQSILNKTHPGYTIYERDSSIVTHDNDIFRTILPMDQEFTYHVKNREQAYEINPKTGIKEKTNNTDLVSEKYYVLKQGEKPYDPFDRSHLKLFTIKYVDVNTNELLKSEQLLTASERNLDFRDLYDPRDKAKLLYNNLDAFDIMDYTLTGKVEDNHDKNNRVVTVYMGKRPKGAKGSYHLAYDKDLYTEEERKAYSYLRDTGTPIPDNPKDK

[17] = inhibitors of intracellular T. cruzi replication, confirmation, NIH3T3 host cells, beta-gal luminescence (AID 2044); assay type: functional, cell-based;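 also: intracellular parasites grown in NIH/3T3 mouse fibroblasts as host cells; luminescent beta-galactosidase reporter signal from transgenic T. cruzi replicating inside host cells; inhibitors lower the luminescence signal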
[18] = cytotoxicity toward NIH3T3 fibroblasts, dose response, counter-screen, cell-based, ATP luminescence, mouse fibroblasts (AID 2010); assay type: functional;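 also: cells exposed to compound for about 90 hours before reading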
[19] = tested on: Streptococcus; experiment: Group A Streptococcus viability loss, dose response, counter-screen for streptokinase expression inhibitor project, luminescence, BacTiterGlo (AID 1915); assay type: functional, organism-based;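 also: potency for reduction of bacterial viability or growth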
[20] = tested on: INS1; experiment: beta cell apoptosis inhibitors, cytokine rescue, dose response, luminescence, retest (AID 449756); assay type: functional, cell-based; conditions: Rattus norvegicus;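 also: cell death triggered by IL-1 beta plus TNF-alpha plus IFN-gamma mixture; protective hits raise ATP signal compared with cytokine alone wells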
[21] = molecular target: Albumin (Bos taurus, UniProt P02769); experiment: Counterscreen for inhibitors of T-cell receptor (TCR)-CD3 interaction: Fluorescence-based biochemical high throughput dose response assay to identify inhibitors of T-cell receptor (TCR)-CD3 interaction using a TAMRA-labeled BSA probe.; assay type: functional
Sequence of Albumin (P02769 whole entry): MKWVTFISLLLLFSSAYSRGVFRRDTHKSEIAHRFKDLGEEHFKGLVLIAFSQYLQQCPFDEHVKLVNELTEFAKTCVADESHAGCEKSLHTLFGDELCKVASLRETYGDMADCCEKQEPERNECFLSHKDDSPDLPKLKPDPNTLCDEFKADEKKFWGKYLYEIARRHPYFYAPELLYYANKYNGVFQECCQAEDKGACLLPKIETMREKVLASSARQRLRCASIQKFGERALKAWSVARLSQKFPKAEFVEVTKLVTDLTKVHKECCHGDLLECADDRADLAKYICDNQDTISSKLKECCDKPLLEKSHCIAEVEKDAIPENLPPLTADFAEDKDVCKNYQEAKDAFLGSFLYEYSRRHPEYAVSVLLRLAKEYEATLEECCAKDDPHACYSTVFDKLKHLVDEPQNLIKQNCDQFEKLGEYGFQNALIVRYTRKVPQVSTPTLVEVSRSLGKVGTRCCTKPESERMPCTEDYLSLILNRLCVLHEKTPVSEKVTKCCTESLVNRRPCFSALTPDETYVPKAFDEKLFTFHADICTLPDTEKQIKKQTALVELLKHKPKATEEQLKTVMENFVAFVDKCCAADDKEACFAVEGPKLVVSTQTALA

[22] = NIH-3T3 fibroblast cytotoxicity, dose response, cytotoxicity control, cell-based, fluorescence, Alamar Blue, secondary assay (AID 2327); assay type: functional;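 also: NIH-3T3 mouse fibroblasts cultured with fluconazole at 8 µg/mL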
[23] = C. albicans growth with fluconazole, confirmation, fluorescence, retest (AID 2467); assay type: functional, cell-based
[24] = THP-1 cell cytotoxicity, dose response, cytotoxicity control for non-replicating M. tuberculosis project (AID 489025); assay type: functional
[25] = HepG2 cell cytotoxicity, dose response, cytotoxicity control for non-replicating M. tuberculosis project (AID 489018); assay type: functional; conditions: Mycobacterium tuberculosis
[26] = Vero E6 cell cytotoxicity, dose response, cytotoxicity control for non-replicating M. tuberculosis project, secondary assay (AID 492998); assay type: functional, VeroE6; conditions: Vero C1008
[27] = cells; assay type: functional

Sequence of Glucose-6-phosphate 1-dehydrogenase (P11413 whole entry): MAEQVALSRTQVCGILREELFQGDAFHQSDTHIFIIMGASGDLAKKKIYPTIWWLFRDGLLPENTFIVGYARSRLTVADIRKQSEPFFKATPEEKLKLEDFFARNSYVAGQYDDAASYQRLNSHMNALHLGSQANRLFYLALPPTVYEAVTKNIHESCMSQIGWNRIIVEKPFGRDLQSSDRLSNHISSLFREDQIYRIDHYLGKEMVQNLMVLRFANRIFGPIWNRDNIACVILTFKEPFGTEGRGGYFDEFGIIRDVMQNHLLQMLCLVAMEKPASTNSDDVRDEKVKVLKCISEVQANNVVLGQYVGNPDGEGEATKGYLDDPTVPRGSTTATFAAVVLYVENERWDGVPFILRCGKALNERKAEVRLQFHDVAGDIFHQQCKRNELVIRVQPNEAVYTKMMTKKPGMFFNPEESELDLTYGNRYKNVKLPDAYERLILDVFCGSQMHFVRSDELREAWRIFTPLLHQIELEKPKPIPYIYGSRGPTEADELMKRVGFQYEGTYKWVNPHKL

For `CC1=C(O)C(=O)C=C2C1=CC=C1C2(C)CCC2(C)C3CC(C)(C(=O)O)CCC3(C)CCC12C` (centres undefined), the IC50 [1] was > 80 µM (inactive), the IC50 [2] was > 66.6 µM (inactive) and the IC50 [3] was 619 nM (active). The AC50 [4] was 1.41 µM (active), the CC50 [5] was 1.43 µM (active) and the IC50 [6] was 21.4 µM (inactive). For the same compound, the IC50 [7] was 19.7 µM (active), the IC50 [8] was 205 nM (active) and the IC50 [9] was 38.1 µM (inactive). The AC50 [10] was 2.41 µM (active), the AC50 [11] was 26.1 µM (active) and the IC50 [12] was > 100 µM (active). The CC50 [13] was 1.01 µM (active).
In the case of `Cc1cc2cc3c(NC(=O)c4ccco4)nn(C)c3nc2cc1C`, the AC50 [14] is reported as 147 µM (active).
For `O=C1C(=O)N(Cc2cccc(Cl)c2)c2ccccc21`, the AC50 [14] was 124 µM (active).
In the case of `C/C(=N\NC(=O)c1nnn(-c2nonc2N)c1CN(C)c1ccccc1)c1ccccc1O`, the EC50 [15] is reported as 5.37 µM (active), the EC50 [16] is reported as > 150 µM (not active) and the EC50 [17] is reported as 403 nM (active). For the same compound, the EC50 [18] was 5.57 µM (active), the EC50 [19] was 5.74 µM (active) and the AC50 [20] was 2.15 µM (active). For the same compound, the IC50 [21] was > 94.1 µM (inactive).
In the case of `COc1ccc(C(=O)NNC(=S)NC(=O)c2cccc([N+](=O)[O-])c2)cc1`, the EC50 [22] is reported as > 160 µM (inactive), the EC50 [23] is reported as 2.63 µM (active) and the CC50 [24] is reported as 19.3 µM (active). The CC50 [25] was > 20 µM (active), the CC50 [26] was 17.9 µM (active) and the IC50 [27] was 18.9 µM (active). The IC50 [21] was > 94.1 µM (inactive).
